pIC50: −log10 of the molar value.
Key:
[1] = system: 9L cells transduced by Ad.CMVdCK; experiment: Cytotoxic assay after adenoviral transduction; assay type: cell-based; details: Rattus norvegicus, 24 h
Method: (§1) FIGS. 6A and 6B show in vitro sensitivity to ara-C following transduction with dCK-expressing or control virus. 9L cells (2×10^3) were infected as follows: (FIG. 6A) Ad.CMVβgal at MOI 0 (●), 50 (▪), 500 ( ? ); and (FIG. 6B) Ad.CMVdCK at MOI 0 (◯), 50 (□) and 500 ( ? ). […] Cytotoxicity was determined by staining with methylene blue. […] The difference in cell killing was highly statistically significant for cells treated with Ad.CMVdCK at an MOI of 500 (P<0.00 1).
(§2) Cytotoxic assays were performed to determine whether 9L transduction by Ad.CMVdCK confers ara-C sensitivity. Forty-eight hours after transduction, 9L cells were exposed to various concentrations of ara-C for 24 hours. Forty-eight hours later, cells were assayed for cytotoxic effects.

[2] = system: 9L cells transduced by Ad.CMVβgal; experiment: Cytotoxic assay after adenoviral transduction; assay type: cell-based; details: Rattus norvegicus; Ad.CMVβgal at different MOIs, 48 h after transduction, 24 hours ara-C
Method: as §1, §2

9L-Neo cells [3] = experiment: cells; assay type: cell-based; details: Rattus norvegicus, 120 h, read-out: Cytotoxicity, cell viability
Method: Surviving cells were then counted 3 days later. Data represent means+s.e.m. […] Data represent the means +s.e.m. (bars) of five separate experiments.
In order to determine whether the dCK/ara-C-mediated bystander effect is dependent on direct cell-to-cell contact, 9L-Neo cells were plated on the bottom of a microliter transwell either directly with 9L-dCK cells or separated from the 9L-dCK cells by a 3-μm porous membrane. Significant cytotoxicity (38%+2% of control) was also seen in the 9L-Neo cells that were directly mixed in the bottom compartment with the 9L-dCK cells, compared with minimal cytotoxicity (81% of control) when the 9L-Neo cells were separated from the 9L-dCK cells by the membrane (FIG. 3b). The difference in cytotoxicity between cell-to-cell and membrane separated cell killing was statistically significant; P<0.01.

9L-Neo tumors [4] = experiment: Growth of intradermal tumors in syngeneic rat; assay type: in vivo, Fischer 344 rats
Method: Implantation of intradermal tumors. […] Tumor volume was calculated by multiplying the values of three perpendicular diameters. Statistical analysis was performed using an unpaired, two-tailed, Student's t-test.
Treatment of animals. […] Oncol.

9L-Neo tumors [5] = experiment: Survival of rats with intracerebral tumors; details: intracerebral 9L-Neo tumors, ara-C 200 mg/kg; P<0.02
Method: 9L-Neo or 9L-dCK cells (2×10^4) were stereotaxically injected into right caudate nucleus of the brain.
In a second experiment, intracerebral tumors were established and rat survival was measured. Secondary to restricted intracranial volume, the survival of rats in this model represents a very reproducible parameter for determining the growth of transplanted tumors or tumor cell lines in vivo.
(§4) Implantation of intracerebral tumors. 9L-Neo and 9L-dCK cells were stereotaxically implanted into the right caudate nucleus of Fischer 344 rats using a modification of the method of Kobayashi [Kobayashi, N. et al. J. Neurosurg. […] In brief, male Fischer 344 rats (150-175 g) were anesthetized and placed in a small animal stereotaxic frame (Kopf Instruments). Tumor cells (2×10^4/10 μl) were injected with a 701 Hamilton syringe over 30 s to a depth of 4.5 mm, 1.3 mm posterior and 4 mm to the right of the bregma. […] Statistical significance of survival between different groups was assessed using log rank analysis of Kaplan Meier survival curves.

9L-Neo cells [6] = experiment: Incorporation of ara-C into DNA; assay type: cell-based, rat; details: one million cells
Method: (§3) Three and 6 h later, labeled cells were harvested, and digested by the addition of 2.5 mg proteinase-K (Boehringer-Mannheim, Indianapolis, Ind.) in 2 ml of 10 mM Tris (pH 7.4), 1 mM EDTA, and 0.5% SDS. Subsequent purification was accomplished by phenol extraction. The nucleic acids were precipitated, centrifuged, treated with RNase A and then assayed for radioactivity [Major, P. D., et al., Proc. Natl. Acad. Sci. USA 78:3235-3239 (1981)].

9L-WT cells = experiment: Incorporation of ara-C into DNA; assay type: cell-based, rat; details: one million cells
Method: as §3

intracerebral 9L glioma = assay type: in vivo, Fischer 344 rats
Method: 9L-Neo or 9L-dCK cells (2×10^4) were injected into right caudate nucleus of the brain. Four days later, viral vehicle or 2×10^8 PFU of recombinant adenoviruses were injected into the tumors stereotaxically using the same route of previous 9L inoculation (V).
Four days later, viral vehicle, or 2×10^8 PFU (plaque-forming units) of either the Ad.CMVβgal or Ad.CMVdCK vectors were stereotactically injected into the tumors.
as §4

Work on `Nc1ccn([C@@H]2O[C@H](CO)[C@@H](O)[C@@H]2O)c(=O)n1` [ara-C, 1-β-D-arabinofuranosyl-cytosine] yielded a pIC50 ([1]; Ad.CMVdCK MOI 0, 24 hours ara-C) of 6.52, a pIC50 ([1]; Ad.CMVdCK MOI 50, 24 hours ara-C) of 6.72 and a pIC50 ([1]; Ad.CMVdCK MOI 500, 24 hours ara-C, P<0.001) of 7.10. The pIC50 [2] was ~6.52, the viability at 0.2 µM (9L-Neo cells [3]) was 38% and the Tumor size (9L-Neo tumors [4]; intradermal 9L-Neo tumors, ara-C 200 mg/kg s.c. every 8 h for 2 days, two courses) was 9556+2272 mm^3. For the same molecule, the “Growth of 9L-Neo tumors, ara-C versus PBS” value (9L-Neo tumors [4]; intradermal, ara-C 200 mg/kg) was “no significant difference in the growth”, the “Prolongation of median survival compared with PBS-treated animals” value (9L-Neo tumors [5]) was 8 days and the “Incorporation of ara-C into DNA” value (9L-Neo cells [6]; 3 hours, 10^−7 M [3H]ara-C) was 0.502 ± 0.198 pmol. The “Incorporation of ara-C into DNA” value (9L-Neo cells [6]; 3 hours, 10^−8 M [3H]ara-C) was 0.067 ± 0.007 pmol, the “Incorporation of ara-C into DNA” value (9L-Neo cells [6]; 6 hours, 10^−7 M [3H]ara-C) was 1.926 ± 0.259 pmol and the “Incorporation of ara-C into DNA” value (9L-Neo cells [6]; 6 hours, 10^−8 M [3H]ara-C) was 0.403 ± 0.101 pmol. For the same molecule, the “Incorporation of ara-C into DNA” value (9L-WT cells; 3 hours, 10^−7 M [3H]ara-C) was 0.359 ± 0.061 pmol, the “Incorporation of ara-C into DNA” value (9L-WT cells; 3 hours, 10^−8 M [3H]ara-C) was 0.054 ± 0.001 pmol and the “Incorporation of ara-C into DNA” value (9L-WT cells; 6 hours, 10^−7 M [3H]ara-C) was 1.905 ± 0.652 pmol. The “Incorporation of ara-C into DNA” value (9L-WT cells; 6 hours, 10^−8 M [3H]ara-C) was 0.305 ± 0.094 pmol, the “Survival of animals treated with Ad.CMVdCK and ara-C” value (intracerebral 9L glioma; 2×10^8 PFU Ad.CMVdCK intratumoral, versus viral vehicle or Ad.CMVβgal and ara-C, P<0.0005) was “survived much longer” and the “Survival of vehicle and Ad.CMVβgal injected animals treated with ara-C” value (intracerebral 9L glioma; versus PBS-treated animals, P<0.02) was “longer than that seen in the PBS-treated animals”.

— US6423692B2 (priority 1997, dated 2002)
